The values below come from paper PMC9953295, “Commonly Used Therapeutics Associated with Changes in Arousal Inhibit GABAAR Activation” (Biomolecules, 2023).

Molecules are shown by their SMILES. Counter-ions that a name gives are not always drawn. Where only a bound is given, the exact number is not on record here.

For data set [1] the following is noted: one reference per drug; cited from earlier work.
The target in data set [2] is α1β2γ2L GABAA receptors stably expressed in HEK293 cells (Mus musculus, UniProt P22723+P62812+P63137). Format: cell-based. Conditions: for nH: Hill coefficient of modulator concentration-response; for Effect on GABAA receptor activation (in words): microfluidic patch clamp, concentrations up to 300 μM. The method, then: Extracellular saline solutions contained 140 mM NaCl, 5 mM KCl, 2 mM CaCl2, 1 mM MgCl2, 10 mM HEPES, and 10 mM D-glucose. Both salines were adjusted to pH 7.4 (330 mOsm) and were 0.2 µm filter sterilized. The composition was based on solutions designed for long duration HEK293 biophysics studies. HEK293 cells stably expressing mouse α1β2γ2L receptors were dissociated with detachin (Genlantis, San Diego, CA, USA), resuspended in extracellular saline (2.5 × 10^6 cells/mL), and agitated prior to loading into 384-well Fluxion ensemble plates.
Sequence of α1β2γ2L GABAA receptors stably expressed in HEK293 cells (P63137 26-512): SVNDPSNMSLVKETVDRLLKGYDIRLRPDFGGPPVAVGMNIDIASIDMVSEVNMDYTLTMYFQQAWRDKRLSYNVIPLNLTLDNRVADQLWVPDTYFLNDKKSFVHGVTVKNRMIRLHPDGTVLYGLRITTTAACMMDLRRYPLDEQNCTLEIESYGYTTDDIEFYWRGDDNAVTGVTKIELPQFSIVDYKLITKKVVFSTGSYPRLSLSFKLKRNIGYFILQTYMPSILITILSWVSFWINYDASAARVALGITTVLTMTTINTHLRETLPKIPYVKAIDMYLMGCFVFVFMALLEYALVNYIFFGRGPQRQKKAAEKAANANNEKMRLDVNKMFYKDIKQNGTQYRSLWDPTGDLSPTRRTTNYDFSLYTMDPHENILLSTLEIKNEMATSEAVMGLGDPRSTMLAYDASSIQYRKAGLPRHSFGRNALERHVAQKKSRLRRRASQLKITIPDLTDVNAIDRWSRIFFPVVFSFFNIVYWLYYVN
Sequence of α1β2γ2L GABAA receptors stably expressed in HEK293 cells (P22723 39-474): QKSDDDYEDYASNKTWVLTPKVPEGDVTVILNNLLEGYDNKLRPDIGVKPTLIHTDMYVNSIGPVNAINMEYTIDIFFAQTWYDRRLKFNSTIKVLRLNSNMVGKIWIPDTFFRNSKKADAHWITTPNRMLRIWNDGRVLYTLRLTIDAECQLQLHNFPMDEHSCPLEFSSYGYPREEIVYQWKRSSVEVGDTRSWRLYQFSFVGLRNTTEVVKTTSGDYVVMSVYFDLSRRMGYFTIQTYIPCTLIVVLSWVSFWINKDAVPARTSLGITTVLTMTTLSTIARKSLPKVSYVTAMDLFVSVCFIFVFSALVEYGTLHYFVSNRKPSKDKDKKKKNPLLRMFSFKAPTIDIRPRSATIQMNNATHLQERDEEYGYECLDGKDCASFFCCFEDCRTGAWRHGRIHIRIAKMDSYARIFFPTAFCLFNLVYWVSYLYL
Sequence of α1β2γ2L GABAA receptors stably expressed in HEK293 cells (P62812 28-455): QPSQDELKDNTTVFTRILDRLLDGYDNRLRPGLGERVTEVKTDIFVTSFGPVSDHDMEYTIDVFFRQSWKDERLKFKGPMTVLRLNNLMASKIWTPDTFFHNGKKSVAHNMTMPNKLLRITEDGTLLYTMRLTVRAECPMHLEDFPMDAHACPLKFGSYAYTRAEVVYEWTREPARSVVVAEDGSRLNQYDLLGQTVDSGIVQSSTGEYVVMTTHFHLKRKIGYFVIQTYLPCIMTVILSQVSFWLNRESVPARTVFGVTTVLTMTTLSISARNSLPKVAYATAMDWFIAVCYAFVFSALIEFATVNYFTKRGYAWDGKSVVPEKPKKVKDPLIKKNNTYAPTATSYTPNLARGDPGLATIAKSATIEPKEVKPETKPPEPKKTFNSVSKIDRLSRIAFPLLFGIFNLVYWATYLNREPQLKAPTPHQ
Cells were patched using an Ionflux Mercury microfluidic automated patch clamp system (Fluxion Biosciences, Oakland, CA, USA). Each experiment ran on a disposable 384-well plate with microfluidic channels printed into an ionized polydimethylsiloxane base. Each plate was divided into 4 zones, each containing 8 repeats of the same experimental pattern (see Figure 1). Each pattern comprised 8 compound wells containing the ligands/modulator combinations to be used in the experiment. Connected to these by a manifold perfusion chamber was an inlet well containing the cell suspension, an outlet well for discarded perfusate, and 2 trapping wells. Both trapping wells contained intracellular solution and were connected to the manifold via 20 1 µm diameter holes for cell attachment (each pattern can patch up to 40 cells simultaneously). Intracellular electrodes were placed in the 2 trapping wells, and the reference electrode in the waste well. Electrodes were connected to 64 conventional low-noise resistive feedback amplifiers. After cleaning, the plates were loaded with up to 100 µL of experimental solution or cell suspension per well. Each plate was loaded into the Fluxion Ionflux Mercury device, and a bespoke script primed the experimental fluidic channels and manifold, and the traps and sealed cells for voltage clamp measurements, and finally, controlled solution application/concentration jumps prior to saving the data collected. Agonist applications were repeated in triplicate (see Supplemental Figure S1). The current data were recorded at 10 kHz and stored for offline analysis. MATLAB scripts were used to measure the baseline leak current and peak response for each episode of data (typically 2000–4000/experiment). The matrix of peaks was expressed as a percentage of the response to a reference concentration. For the agonist concentration–response experiments, this was the maximum response. For the modulator concentration–response experiments, this was the EC10 agonist response.
A general note: The patch-clamp technique gives a direct electrical read-out from membranes.

Details of data set [3]: method as in PMID 10384859. The following applies: cited from earlier work.
Data set [4] concerns the target T1, Human GABAA receptor (α1β2γ2s) expressed in HEK293 cells (Homo sapiens, UniProt P14867+P18507+P47870).
T1 construct: expressed in transfected cells; host or cells: HEK293
The data set can be described thus: Conventional whole-cell patch clamp: GABAA receptor activation and CSF-mediated potentiation. Conditions: for Effect on GABAA receptor activation (in words): conventional single electrode patch clamp. The data set is classed as cell-based. How it is done:
Human GABAA receptor cDNAs (α1β2γ2s) were subcloned into the pcDNA 3.1 expression vector, and they were subsequently transfected into HEK293 cells using standard methods. Forty-eight hours later, cells were exposed to individual GABAARNAM solutions with simultaneous exposure to GABA. GABAARNAMs were obtained from Sigma-Aldrich, and the solutions were prepared with a saline solution to 1–300 µM concentrations. […] Stable cell lines were generated and handled as previously described.
Patch pipettes were fabricated from thin-walled borosilicate glass (TW150F-4, World Precision Instruments, Inc., Sarasota, FL, USA) using a horizontal puller (P-97, Sutter Instrument Co., Novato, CA, USA). The resistances of the patch pipettes were 2–5 megaohms when filled with an intracellular solution containing 120 mM KCl, 2 mM MgCl2, 10 mM EGTA, and 10 mM HEPES, adjusted to pH 7.2 with NaOH. Cells were perfused continuously with an extracellular solution containing 160 mM NaCl, 10 mM HEPES, 6 mM D-glucose, 3 mM KCl, 1 mM MgCl2, and 1.5 mM CaCl2, adjusted to pH 7.4. Two 10-channel infusion pumps (KD Scientific) and a rapid solution exchanger (Biologic) were used to apply extracellular saline to the cells. […] The solution changer was driven by protocols written in pClamp 9.2 (Molecular Devices).

T1 sequence (P14867 28-456): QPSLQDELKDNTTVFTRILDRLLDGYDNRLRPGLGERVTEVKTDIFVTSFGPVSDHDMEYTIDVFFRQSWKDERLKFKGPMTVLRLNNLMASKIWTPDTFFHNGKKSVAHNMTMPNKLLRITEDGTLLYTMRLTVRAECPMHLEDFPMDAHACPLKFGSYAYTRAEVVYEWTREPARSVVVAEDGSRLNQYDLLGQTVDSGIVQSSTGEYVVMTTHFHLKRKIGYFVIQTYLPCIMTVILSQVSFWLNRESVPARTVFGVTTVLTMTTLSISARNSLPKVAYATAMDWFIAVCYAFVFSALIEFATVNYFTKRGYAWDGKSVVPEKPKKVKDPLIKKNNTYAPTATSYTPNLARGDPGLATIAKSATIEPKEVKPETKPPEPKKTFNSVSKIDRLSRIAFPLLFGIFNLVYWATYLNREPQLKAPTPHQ
T1 sequence (P47870 25-512 limits assumed): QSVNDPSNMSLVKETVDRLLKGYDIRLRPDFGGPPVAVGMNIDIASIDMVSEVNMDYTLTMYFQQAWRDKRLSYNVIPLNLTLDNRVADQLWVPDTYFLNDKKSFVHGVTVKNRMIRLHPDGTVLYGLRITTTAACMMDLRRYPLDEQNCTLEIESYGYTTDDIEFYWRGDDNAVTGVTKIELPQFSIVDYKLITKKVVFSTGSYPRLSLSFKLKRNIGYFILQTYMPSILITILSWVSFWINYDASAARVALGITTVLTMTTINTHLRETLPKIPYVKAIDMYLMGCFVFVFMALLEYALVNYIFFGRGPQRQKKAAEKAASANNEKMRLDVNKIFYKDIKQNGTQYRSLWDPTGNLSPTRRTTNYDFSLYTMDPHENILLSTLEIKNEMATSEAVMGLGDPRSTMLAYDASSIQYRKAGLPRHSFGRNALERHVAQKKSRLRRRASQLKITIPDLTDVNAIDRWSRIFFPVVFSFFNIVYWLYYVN
T1 sequence (P18507 40-467 isoform P18507-1 limits assumed): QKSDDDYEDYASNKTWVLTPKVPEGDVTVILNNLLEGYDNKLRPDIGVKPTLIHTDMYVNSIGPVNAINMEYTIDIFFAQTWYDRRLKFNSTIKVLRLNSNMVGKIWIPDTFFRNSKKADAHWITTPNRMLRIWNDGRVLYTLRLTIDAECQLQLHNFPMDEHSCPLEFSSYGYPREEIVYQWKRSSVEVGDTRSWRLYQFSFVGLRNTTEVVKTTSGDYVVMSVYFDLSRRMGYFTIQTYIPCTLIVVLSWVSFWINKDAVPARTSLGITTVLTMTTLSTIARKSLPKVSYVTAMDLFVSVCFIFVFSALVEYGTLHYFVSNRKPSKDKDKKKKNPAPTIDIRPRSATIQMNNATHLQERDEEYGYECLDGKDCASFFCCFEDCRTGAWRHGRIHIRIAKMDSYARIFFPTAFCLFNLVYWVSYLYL

Consider `C1CCc2nnnn2CC1` [pentylenetetrazole, Pentylenetetrazol], for which the “[CNS] concentration of drug in the CNS” value in data set [1] is 330 [43] μM. For the same compound, in data set [2], the nH is 1.3 and the “Effect on GABAA receptor activation (in words)” value is given as “blocked GABAAR activation in a concentration-dependent manner”.
For `CN(C)c1ccc(O)c2c1C[C@H]1C[C@H]3[C@H](N(C)C)C(O)=C(C(N)=O)C(=O)[C@@]3(O)C(O)=C1C2=O` [Minocycline], in data set [1], the “[CNS] concentration of drug in the CNS” value was 1.1 [41] μM. The “Effect on GABAA receptor activation (in words)” value in data set [2] is “irreversible blocker”.
In the case of `CCN(CCO)CCCC(C)Nc1ccnc2cc(Cl)ccc12` (stereo not shown) [Hydroxychloroquine, Hydroxychloroquine sulfate], the “[CNS] concentration of drug in the CNS” value in data set [1] was 50 [39] μM. In data set [2], the nH is given as 1.4; the “Effect on GABAA receptor activation (in words)” value is “modest and incomplete block of receptor activation”.
On to `Cc1ncc([N+](=O)[O-])n1CCO` [Metronidazole], for which the Bioavailability in data set [3] (administered orally) is recorded as greater than 90%. The “CNS concentration as % of plasma concentrations” value in data set [3] was 60–100%. For the same compound, in data set [2], the nH is on record as 0.8 and the “Effect on GABAA receptor activation (in words)” value is “modest inhibition of GABA activation”.
Regarding `CC1COc2c(N3CCN(C)CC3)c(F)cc3c(=O)c(C(=O)O)cn1c23` (stereo not shown) [Ofloxacin], in data set [1], the “[CNS] concentration of drug in the CNS” value was 5.6 [42] μM. Besides, the “Effect on GABAA receptor activation (in words)” value in data set [4] was “modest and incomplete block of receptor activation”; in data set [2], “modest and incomplete block of receptor activation”.
Regarding `CC[C@H]1OC(=O)[C@H](C)[C@@H](O[C@H]2C[C@@](C)(OC)[C@@H](O)[C@H](C)O2)[C@H](C)[C@@H](O[C@@H]2O[C@H](C)C[C@H](N(C)C)[C@H]2O)[C@](C)(OC)C[C@@H](C)C(=O)[C@H](C)[C@@H](O)[C@]1(C)O` [Clarithromycin, clarithromycin], in data set [1], the “[CNS] concentration of drug in the CNS” value was 10 [37] μM. Also, the “Reversal of CSF-induced potentiation of GABA receptor function” value in data set [4] (300 μM clarithromycin, currents activated by 10 μM GABA (EC10), CSF from hypersomnolent patients, n = 6 cells) was 71 ± 13%. For the same compound, the “Intrinsic efficacy at GABAA receptor (in words)” value in data set [4] (clarithromycin applied without GABA) is reported as “no intrinsic efficacy”. Further, in data set [4], the “Effect on GABAA receptor activation (in words)” value is on record as “reversibly inhibits receptor activation”. Also, the “Effect of clarithromycin concentration on GABA EC50 (in words)” value in data set [2] (GABA concentration–function relationships in 0–300 μM clarithromycin) is listed as “GABA EC50 continued to increase”. Also, in data set [2], the nH was 1 and the “Effect on GABAA receptor activation (in words)” value is on record as “reversibly inhibited GABAA receptor activation in a concentration-dependent manner”.
With `O=C(O[C@@H]1Cc2c(O)cc(O)cc2O[C@@H]1c1cc(O)c(O)c(O)c1)c1cc(O)c(O)c(O)c1` [EGCG, (-)-Epigallocatechin Gallate], the “[CNS] concentration of drug in the CNS” value in data set [1] is 0.18 [35] μM. Also, in data set [2], the nH came out at 1.1 and the “Effect on GABAA receptor activation (in words)” value was “modest inhibition of GABA activation”.
With `CC[C@H]1OC(=O)[C@H](C)[C@@H](O[C@H]2C[C@@](C)(OC)[C@@H](O)[C@H](C)O2)[C@H](C)[C@@H](O[C@@H]2O[C@H](C)C[C@H](N(C)C)[C@H]2O)[C@](C)(O)C[C@@H](C)C(=O)[C@H](C)[C@@H](O)[C@]1(C)O` [Erythromycin], the “[CNS] concentration of drug in the CNS” value in data set [1] is 0.68 [38] μM.
On to `NCCCC(=O)O` [GABA], for which, in data set [2] (100 µM GABA), the “Response to GABA as % of the maximal response” value is recorded as greater than 90%.
`CCN(CC)CCCC(C)Nc1ccnc2cc(Cl)ccc12` (stereo not shown) [Chloroquine]: in data set [1], the “[CNS] concentration of drug in the CNS” value is 1.60 [36] μM.
